Experimental data: patent US7655767B2, “Use of thiazolyl-pyridinium based dyes in optical layers for optical data recording” (priority 2004, dated 2010)

Legend:
[1] = Thermal decomposition (TGA / DSC); assay type: physicochemical
Text: The optical and thermal properties of the thiazolyl-pyridinium based dye compounds were studied. The dyes show high absorption at the desired wavelengths. In addition, the shape of the absorption spectra, that still remains critical to the disc reflectivity and formation of clean mark edges, are composed of one major band, comprised in a range of from 350 to 500 nm, preferably of from 350 to 400 nm.
Sharp threshold of thermal decomposition within the required temperature range characterizes the new thiazolylpyridinium based dyes which are assumed to be desirable for the application in optical layers for optical data recording.

[2] = Solubility in 2,2,3,3-tetrafluoropropanol; conditions: 20 °C, organic solvent or mixture

SMILES | TGA (decomp.) [1] [°C] | solubility [2] [mg/mL]
CC(C)[n+]1ccc(-c2nc(-c3ccccc3)cs2)cc1.[I-] [Example 7, 1-isopropyl-4-[4-phenyl-thiazolyl-(2)]-pyridiniumiodide] | 270 | > 50
C[n+]1ccc(-c2nc(-c3ccccc3)cs2)cc1.[I-] [Example 9, 1-methyl-4-[4-phenyl-thiazolyl-(2)]-pyridinium iodide] | 260 | > 30
C[n+]1ccc(-c2nc3ccc(Cl)cc3s2)cc1.[I-] [Example 12, 1-methyl-4-(6-chlor-benzothiazol-2-yl)pyridinium iodide] | 244 | > 50
COc1ccc(-c2csc(-c3cc[n+](C(C)C)cc3)n2)cc1 [Example 11] | 240 | > 50
C[n+]1ccc(-c2nc(C(C)(C)C)cs2)cc1.[I-] [Example 8, 1-methyl-4-[4-tert-butyl-thiazolyl-(2)]-pyridiniumiodide] |  | > 5e-05
COc1ccc(-c2csc(-c3cc[n+](C)cc3)n2)cc1.[I-] [Example 10, 4-[4-(4-methoxy-phenyl)-thiazol-2-yl]-1-methyl-pyridinium iodide] | 250 | > 50
